Measured values: ChEMBL document CHEMBL1139500, “The next generation of phosphodiesterase inhibitors: structural clues to ligand and substrate selectivity of phosphodiesterases” (J Med Chem, 2005)
pIC50, pKi: −log10 of the molar value.

Key:
[1] = target: T1, Phosphodiesterase 7 (Homo sapiens, UniProt Q13946+Q9NP56); assay: (§1) Inhibition of human phosphodiesterase 7; format: protein assay
[2] = target: T1, Phosphodiesterase 7; assay: as §1; format: protein assay; remark: listed apart in the source
[3] = target: Phosphodiesterase 1 (Homo sapiens, UniProt P54750+Q01064+Q14123); assay: Inhibition of human phosphodiesterase 1; format: protein assay
[4] = target: cGMP-dependent 3',5'-cyclic phosphodiesterase (Homo sapiens, UniProt O00408); assay: Inhibition of human phosphodiesterase 2
Sequence of cGMP-dependent 3',5'-cyclic phosphodiesterase (O00408 whole entry): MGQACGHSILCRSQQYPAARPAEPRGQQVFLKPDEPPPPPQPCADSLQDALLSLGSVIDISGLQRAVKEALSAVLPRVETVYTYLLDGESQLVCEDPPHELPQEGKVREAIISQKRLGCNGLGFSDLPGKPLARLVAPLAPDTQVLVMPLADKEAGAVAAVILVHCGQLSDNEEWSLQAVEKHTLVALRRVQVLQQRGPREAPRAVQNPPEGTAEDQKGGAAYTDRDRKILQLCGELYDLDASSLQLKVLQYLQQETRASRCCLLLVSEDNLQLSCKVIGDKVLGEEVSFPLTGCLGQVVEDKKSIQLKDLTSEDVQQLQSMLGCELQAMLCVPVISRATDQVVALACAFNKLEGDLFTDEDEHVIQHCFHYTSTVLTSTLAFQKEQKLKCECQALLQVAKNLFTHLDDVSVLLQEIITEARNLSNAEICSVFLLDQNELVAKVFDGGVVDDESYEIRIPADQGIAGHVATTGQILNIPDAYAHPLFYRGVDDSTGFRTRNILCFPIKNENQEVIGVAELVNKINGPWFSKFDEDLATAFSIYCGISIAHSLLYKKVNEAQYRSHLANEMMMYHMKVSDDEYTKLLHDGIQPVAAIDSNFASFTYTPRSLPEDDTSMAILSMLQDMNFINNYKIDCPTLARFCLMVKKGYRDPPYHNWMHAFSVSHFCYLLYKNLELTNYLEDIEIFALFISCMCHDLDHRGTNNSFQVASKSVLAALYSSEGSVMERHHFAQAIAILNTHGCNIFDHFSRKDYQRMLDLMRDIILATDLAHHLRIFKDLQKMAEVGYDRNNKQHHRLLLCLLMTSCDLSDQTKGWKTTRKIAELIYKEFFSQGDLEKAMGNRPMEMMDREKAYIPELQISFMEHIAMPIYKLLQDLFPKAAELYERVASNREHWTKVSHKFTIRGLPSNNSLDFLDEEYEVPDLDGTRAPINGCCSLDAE

[5] = Inhibitory activity against phosphodiesterase 8
[6] = target: Phosphodiesterase 6; assay: Inhibition of human phosphodiesterase 6; format: protein assay
[7] = target: High affinity cGMP-specific 3',5'-cyclic phosphodiesterase 9A (Homo sapiens, UniProt O76083); assay: Inhibition of human phosphodiesterase 9
Sequence of High affinity cGMP-specific 3',5'-cyclic phosphodiesterase 9A (O76083 whole entry): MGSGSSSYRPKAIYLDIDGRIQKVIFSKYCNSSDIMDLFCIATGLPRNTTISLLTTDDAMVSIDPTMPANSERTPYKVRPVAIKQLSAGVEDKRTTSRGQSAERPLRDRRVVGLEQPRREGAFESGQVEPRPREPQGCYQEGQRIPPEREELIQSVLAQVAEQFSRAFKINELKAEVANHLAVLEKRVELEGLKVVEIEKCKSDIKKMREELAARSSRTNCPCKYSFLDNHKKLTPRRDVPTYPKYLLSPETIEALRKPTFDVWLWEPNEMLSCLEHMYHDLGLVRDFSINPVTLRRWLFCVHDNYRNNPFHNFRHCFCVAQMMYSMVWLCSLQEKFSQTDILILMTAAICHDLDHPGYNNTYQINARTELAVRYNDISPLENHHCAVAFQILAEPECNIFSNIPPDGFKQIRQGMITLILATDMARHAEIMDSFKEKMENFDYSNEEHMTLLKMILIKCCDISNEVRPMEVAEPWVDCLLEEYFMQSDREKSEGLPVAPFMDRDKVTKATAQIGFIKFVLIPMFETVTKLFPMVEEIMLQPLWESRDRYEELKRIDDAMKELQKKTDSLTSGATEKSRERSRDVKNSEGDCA

[8] = target: cAMP and cAMP-inhibited cGMP 3',5'-cyclic phosphodiesterase 10A (Homo sapiens, UniProt Q9Y233); assay: Inhibitory concentration value against phosphodiesterase 10
Sequence of cAMP and cAMP-inhibited cGMP 3',5'-cyclic phosphodiesterase 10A (Q9Y233 whole entry): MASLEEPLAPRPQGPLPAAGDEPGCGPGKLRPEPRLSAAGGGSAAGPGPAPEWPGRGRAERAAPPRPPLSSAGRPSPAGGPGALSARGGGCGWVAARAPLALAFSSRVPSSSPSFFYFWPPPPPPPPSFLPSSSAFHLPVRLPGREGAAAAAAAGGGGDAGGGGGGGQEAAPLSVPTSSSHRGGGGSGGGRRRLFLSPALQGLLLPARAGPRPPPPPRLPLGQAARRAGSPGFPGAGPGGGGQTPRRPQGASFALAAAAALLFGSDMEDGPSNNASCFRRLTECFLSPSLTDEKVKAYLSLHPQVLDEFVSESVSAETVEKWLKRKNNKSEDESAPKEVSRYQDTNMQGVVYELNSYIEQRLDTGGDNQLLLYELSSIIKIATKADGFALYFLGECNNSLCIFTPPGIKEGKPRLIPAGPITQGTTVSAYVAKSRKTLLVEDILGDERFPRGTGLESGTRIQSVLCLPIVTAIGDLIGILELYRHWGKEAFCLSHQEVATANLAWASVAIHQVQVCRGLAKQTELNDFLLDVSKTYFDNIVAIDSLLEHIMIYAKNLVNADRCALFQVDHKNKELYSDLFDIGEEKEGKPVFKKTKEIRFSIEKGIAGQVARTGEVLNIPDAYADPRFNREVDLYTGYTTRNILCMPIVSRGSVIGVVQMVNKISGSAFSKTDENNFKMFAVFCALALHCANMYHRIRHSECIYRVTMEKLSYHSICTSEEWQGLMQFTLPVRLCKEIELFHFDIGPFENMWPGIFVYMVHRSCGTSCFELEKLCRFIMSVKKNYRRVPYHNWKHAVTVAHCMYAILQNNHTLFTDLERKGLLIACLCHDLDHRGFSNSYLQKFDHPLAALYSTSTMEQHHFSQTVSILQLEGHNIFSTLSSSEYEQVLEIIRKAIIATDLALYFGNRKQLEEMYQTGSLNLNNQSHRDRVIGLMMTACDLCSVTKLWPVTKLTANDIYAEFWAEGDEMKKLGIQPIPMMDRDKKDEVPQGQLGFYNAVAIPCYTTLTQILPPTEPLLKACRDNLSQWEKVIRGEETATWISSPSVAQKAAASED

T1 sequence (Q13946 whole entry, looked up): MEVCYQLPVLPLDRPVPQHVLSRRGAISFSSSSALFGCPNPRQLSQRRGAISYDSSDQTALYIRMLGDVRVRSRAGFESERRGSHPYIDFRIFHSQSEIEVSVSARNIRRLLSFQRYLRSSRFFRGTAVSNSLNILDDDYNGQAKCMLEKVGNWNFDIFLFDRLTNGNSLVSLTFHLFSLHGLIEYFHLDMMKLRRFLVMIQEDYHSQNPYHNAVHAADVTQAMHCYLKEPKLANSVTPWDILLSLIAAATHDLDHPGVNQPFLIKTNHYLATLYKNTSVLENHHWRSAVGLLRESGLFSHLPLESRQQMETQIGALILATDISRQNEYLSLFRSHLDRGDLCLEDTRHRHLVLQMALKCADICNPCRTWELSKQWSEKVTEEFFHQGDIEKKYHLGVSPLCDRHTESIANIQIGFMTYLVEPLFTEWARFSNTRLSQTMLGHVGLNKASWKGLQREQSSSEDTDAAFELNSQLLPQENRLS
T1 sequence (Q9NP56 whole entry, looked up): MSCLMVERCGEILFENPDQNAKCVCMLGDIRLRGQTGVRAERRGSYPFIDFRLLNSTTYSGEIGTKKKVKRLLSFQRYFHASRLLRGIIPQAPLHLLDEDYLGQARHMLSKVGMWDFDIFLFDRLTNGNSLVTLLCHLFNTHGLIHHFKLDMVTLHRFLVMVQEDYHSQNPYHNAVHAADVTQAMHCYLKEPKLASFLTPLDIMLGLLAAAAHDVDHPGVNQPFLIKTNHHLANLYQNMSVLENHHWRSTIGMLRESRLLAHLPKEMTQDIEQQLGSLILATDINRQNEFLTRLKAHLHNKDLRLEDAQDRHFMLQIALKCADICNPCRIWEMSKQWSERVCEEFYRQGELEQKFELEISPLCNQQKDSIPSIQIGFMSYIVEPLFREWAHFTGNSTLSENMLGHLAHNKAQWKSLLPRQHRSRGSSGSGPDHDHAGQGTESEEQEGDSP

Work on `CC(C)Cn1c(=O)n(C)c(=O)c2nc[nH]c21` [ISOBUTYLMETHYLXANTHINE] yielded a Ki [1] of 4 µM.

Compound `Cn1nc(-c2ccc(Cl)cc2)s/c1=N\C1CCCCC1` has an Inhibition [2] of 1.5 µM.

`Cc1nc(N)c2ccc(-c3nn(C)/c(=N/C4CCCCC4)s3)cc2n1` showed an Inhibition [2] of 3.9 µM.

For `CCOC(=O)C1=C[C@]2(CC)CCCN3CCc4c(n1c1ccccc41)[C@@H]32` [VINPOCETINE], the Ki [3] was 14 µM.

Work on `CCCCCC[C@@H]([C@@H](C)O)n1cnc2c(N)ncnc21` [EHNA] yielded a pKi [4] of 6.00.

With `OCCN(CCO)c1nc(N2CCCCC2)c2nc(N(CCO)CCO)nc(N3CCCCC3)c2n1` [DIPYRIDAMOLE] the pKi [5] was 5.05, the Ki [1] was 0.6 µM and the Ki [6] was 0.125 µM.

Compound `CCCOc1ccccc1-c1nc2[nH]nnc2c(=O)[nH]1` [ZAPRINAST] has a pKi [7] of 4.46, a pIC50 [8] of 4.66 and a Ki [6] of 0.4 µM.
